5 compounds from patent US11744808B2, “Compositions and methods for treating non-alcoholic steatohepatitis” (ALGERNON PHARMACEUTICALS INC., priority 2018, dated 2023) can be followed below.

Structures are written as SMILES.

The test system of assay [1] is murine STAM™ model of NASH-HCC. In words: Murine STAM model of NASH-HCC, first study (Example 1): H&E NAFLD activity scoring and Sirius red fibrosis area. It is filed as in vivo, C57BL/6 mice. The note with it: for hepatocellular ballooning score relative to Vehicle control / NAFLD activity score relative to Vehicle control / fibrosis area (Sirius red-positive area) compared with the Vehicle group: once daily oral, 6 to 9 weeks of age, Bromantane 20 mg/kg, Istradefylline 18 mg/kg; for hepatocellular ballooning score relative to Vehicle control: Irsogladine 1 mg/kg; for NAFLD activity score relative to Vehicle control / fibrosis area (Sirius red-positive area) compared with the Vehicle group: Telmisartan 10 mg/kg. On the procedure:
Male newborn C57BL/6 mice were used. All mice were born from pathogen-free 14 day-pregnant mice obtained from Japan SLC, Inc. (Hamamatsu, Japan) prior to the start of the study.
(§1) The murine STAM™ model of NASH-HCC was performed according to previously described methods known in the art (Takakura et al, Characterization of non-alcoholic steatohepatitis, Anticancer Res, 34(9):4849-55 (2014); Fujii et al, (2013)). NASH was induced in male mice by a single subcutaneous injection of 200 μg of streptozotocin (STZ, Sigma, Mo., USA) at 2 days after birth and continuous feeding after 4 weeks of age (day 28±2) with a high fat diet (CLEA Japan Inc, Tokyo, Japan) given ad libitum.
Following induction of NASH, the mice were randomized into 12 individual study groups of 8 mice each at 6 weeks of age (day 42±2) based on body weight, the day before the start of treatment.
One day following randomization, the mice were administered a once-daily oral treatment from 6 weeks of age plus one day (day 43±2, treatment Day 1) to 9 weeks of age (hereinafter known as the “treatment period”). The mice in 11 of the 12 study groups (hereafter known as “treatment groups”) were treated individually with a distinct pharmacologic compound formulated with a pharmaceutically acceptable vehicle. […] The pharmaceutically acceptable vehicle in all groups was 0.5% carboxymethyl cellulose (CMC). […] Individual body weight was measured daily during the treatment period. Survival, clinical signs and behavior of mice were also monitored daily.
In each case, a volume of 10 mL/kg of 0.5% CMC was administered orally with (or without) the active ingredient as noted in Table 1 from 6 to 9 weeks of age until sacrifice. One exception being Trapadil, which was administered orally with one dosing of 120 mg/kg on Day 0 and then at the daily dose of 60 mg/kg starting on treatment Day 1. All mice were then sacrificed at 9 weeks of age. Blood samples were collected from all mice and the liver from each mouse was removed for analysis.
(§2) Assessment of Steatohepatitis: Liver cross-sections were subjected to hematoxylin and eosin (H&E) staining using standard techniques for histological assessment of hepatic steatosis, lobular inflammation and hepatocellular ballooning. The level of steatohepatitis severity in each liver cross-section was indicated by NAFLD Activity Scores of: 0 (normal), 1-2 (NAFLD), 3-4 (borderline) or at least 5 (NASH) in 3 randomly selected fields of H&E-stained liver cross-sections of 4 μm thickness at ×50 magnification for evaluation of steatosis and ×200 magnification each for evaluation of inflammation and evaluation of ballooning. The NAFLD Activity Score is the unweighted sum of the following: 1) hepatic steatosis score (0-3); 2) lobular inflammation score ([…]); 3) hepatocellular ballooning score (0-2).
For quantitative analysis of fibrosis area, bright field images of Sirius red-stained sections were captured around the central vein using a digital camera (DFC295; Leica, Germany) at 200-fold magnification, and the positive areas in 5 fields/section were measured using ImageJ software (National Institute of Health, USA).
(§3) Values are arithmetic means. Comparison between the study group and positive control group was performed using a two-tailed, heteroscedastic (two-sample unequal variance) Student's T-Test. A P-value of <0.05 was considered statistically significant following a Bonferroni post-hoc statistical correction analysis for multiple groups (Bonferroni Multiple Comparison Test). In this case, the correction factor was 12, corresponding to the number of study groups. Following the usual convention, the P-value classification and statistical significance levels chosen are shown in Table 2 alongside their corresponding classification scores.

The test system of assay [2] is murine STAM™ model of NASH-HCC. The experiment in a line: Murine STAM model of NASH-HCC, second study (Example 2): H&E NAFLD activity scoring and Sirius red fibrosis area. Type of assay: in vivo, C57BL/6 mice. Conditions: for NAFLD Activity Scores, hepatic steatosis, lobular inflammation and hepatocellular ballooning (conclusion): Bromantane at 40 mg/kg, Cenicriviroc at 30 mg/kg. Here is the method:
As before, male newborn C57BL/6 mice were used. All mice were born from pathogen-free 14 day-pregnant mice obtained from Japan SLC, Inc. (Hamamatsu, Japan) prior to the start of the study.
as §1
Following induction of NASH, the mice were randomized into 7 individual study groups of 8 mice each at 6 weeks of age (day 42±2) based on their body weight, the day before the start of treatment.
One day following randomization, the mice were administered a once-daily oral treatment from 6 weeks of age plus one day (day 43±2, treatment Day 1) to 9 weeks of age. The mice in 6 of the 7 study groups were treated individually with a therapeutic amount of a pharmacologic compound formulated with a pharmaceutically acceptable vehicle. […] The pharmaceutically acceptable vehicle in all groups was 0.5% CMC. […] Individual body weight was measured daily during the treatment period. Survival, clinical signs and behavior of mice were also monitored daily.
In each case, a volume of 10 mL/kg of 0.5% CMC was administered orally with (or without) the active ingredient as noted in Table 3 from 6 to 9 weeks of age. All mice were then sacrificed at 9 weeks of age. Blood samples were collected from all mice and the liver from each mouse was removed for analysis.
as §2
The liver cross-sections of the treated groups were also subjected to Sirius-red staining using standard techniques for histological estimation of the percentage of fibrosis area. For quantitative analysis of fibrosis area, bright field images of Sirius red-stained sections were captured around the central vein using a digital camera (DFC295; Leica, Germany) at 200-fold magnification, and the positive areas in 5 fields/section were measured using ImageJ software (National Institute of Health, USA).
as §3, with “7,” for “12,”, “2 (above)” for “2”

[3] abbreviates: once daily oral, 6 to 9 weeks of age, Bromantane high 40 mg/kg, Bemithyl 200 mg/kg, Cenicriviroc 30 mg/kg, Telmisartan 10 mg/kg.
[4] abbreviates: once daily oral, 6 to 9 weeks of age, Bromantane high 40 mg/kg, Cenicriviroc 30 mg/kg, Bemithyl 200 mg/kg, Telmisartan 10 mg/kg.

As to `CCn1c(=O)c2c(nc(/C=C/c3ccc(OC)c(OC)c3)n2C)n(CC)c1=O` [Istradefylline, 8-[(E)-2-(3,4-dimethoxyphenyl)vinyl]-1,3-diethyl-7-methyl-3,7-dihydro-1H-purine-2,6-dione], the “NAFLD Activity Scores, hepatic steatosis, lobular inflammation and hepatocellular ballooning (conclusion)” value (“NAFLD Activity Scores, hepatic steatosis” below) in assay [1] (Istradefylline at 18 mg/kg, Telmisartan at 10 mg/kg oral, compared to the Vehicle group) is on record as “showed improvement”. In addition, in assay [1], the “hepatocellular ballooning score relative to Vehicle control” value is reported as “Statistically significant reductions”, the “NAFLD activity score relative to Vehicle control” value is reported as “Statistically significant reductions” and the “fibrosis area (Sirius red-positive area) compared with the Vehicle group” value (from here on “fibrosis area … compared with the Vehicle group”) was “significant decreases”.

For the compound `Nc1nc(N)nc(-c2cc(Cl)ccc2Cl)n1` [Irsogladine, 6-(2,5-Dichlorophenyl)-1,3,5-triazine-2,4-diamine], the “hepatocellular ballooning score relative to Vehicle control” value in assay [1] was “Statistically significant reductions”.

As for `CCSc1nc2ccccc2[nH]1` [Bemithyl, 2-Ethylsulfanyl-1H-benzoimidazole], in assay [2] (setting [3]), the “fibrosis area … compared with the Vehicle group” value was “particularly statistically significant decrease”. In addition, the “NAFLD activity score relative to Vehicle control” value in assay [2] (setting [4]) is “statistically significant and clinically relevant composite reduction”.

As for `Brc1ccc(NC2C3CC4CC(C3)CC2C4)cc1` (stereo not drawn) [Bromantane, N-(4-Bromophenyl)adamantan-2-amine], the “hepatocellular ballooning score relative to Vehicle control” value in assay [1] was “Statistically significant reductions”. Further, the “NAFLD activity score relative to Vehicle control” value in assay [1] and in assay [2] (setting [4]) was “Statistically significant reductions” throughout. Moreover, the “fibrosis area … compared with the Vehicle group” value in assay [1] was “significant decreases”; in assay [2] (setting [3]), “statistically significant decreases”; in assay [2] (once daily oral, 6 to 9 weeks of age, Bromantane low 20 mg/kg), “statistically significant decreases”. Further, the “NAFLD Activity Scores, hepatic steatosis” value in assay [2] is reported as “showed improvement”. The “steatosis score relative to Vehicle control” value in assay [2] (once daily oral, 6 to 9 weeks of age, Bromantane high 40 mg/kg, Telmisartan 10 mg/kg) is listed as “Statistically significant reductions”.

Regarding `CCCCOCCOc1ccc(-c2ccc3c(c2)/C=C(/C(=O)Nc2ccc([S@@+]([O-])Cc4cncn4CCC)cc2)CCCN3CC(C)C)cc1` [Cenicriviroc], the “NAFLD Activity Scores, hepatic steatosis” value in assay [2] is listed as “showed improvement”. Further, the “fibrosis area … compared with the Vehicle group” value in assay [2] (setting [3]) is on record as “statistically significant decreases”. In assay [2] (setting [4]), the “NAFLD activity score relative to Vehicle control” value is listed as “Statistically significant reductions”.
